Experiments:
[1] = molecular target: T1, ENL YEATS domain (6×HIS ENL YEATS Domain) binding to H3K9cr peptide (Homo sapiens, UniProt Q03111); test: TR-FRET ENL Screening Assay, FRET Assay Protocol 1; details: H3K9cr peptide (aa1-20)
T1 construct: aa1-150; EpiCypher, 15-0069; purchased EpiCypher 15-0069
T1 sequence (Q03111 1-150): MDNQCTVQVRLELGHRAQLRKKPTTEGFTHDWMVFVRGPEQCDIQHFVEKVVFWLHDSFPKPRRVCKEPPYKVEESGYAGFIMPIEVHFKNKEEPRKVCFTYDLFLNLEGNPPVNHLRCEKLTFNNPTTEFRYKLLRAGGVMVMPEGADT
Protocol: Compounds of the invention were dissolved in DMSO at a concentration of 3 mM with subsequent dilutions in assay buffer (50 mM HEPES PH7.0, 150 mM NaCl, 0.05% BSA, 0.2% Pluronic F-127) such that the assay contained 1% DMSO. […] Low control (LC) wells received 5 uL of assay buffer instead of ENL protein. […] Compound concentration response curves were performed in duplicate over the concentration range of 0.15 nM-30 uM. The response at each compound concentration minus the LC value was converted to percent inhibition of the vehicle control group response (HC-LC). The relationship between the % inhibition and the compound concentration was analyzed using a four parameter logistic equation to estimate lower and upper asymptotes, the compound concentration producing 50% inhibition (IC50 value) and the slope at the mid-point location.

[2] = tested on: MV4-11 cells; test: Cell viability assay (CellTiter-Glo), 12 days; type: cell-based; details: Homo sapiens, readouts on days 4, 8 and 12, day not given
Protocol: Cell-based assays were used to assess the ability of test compounds to reduce cell viability in both MV4:11 (MLL-AF4 MLL) and K562 cells, which were cultured in Iscove's Modified Dulbecco's medium (Gibco, 12440061) containing […]. The assays were conducted over 12 days and the cells being split on days 4 and 8. Compound concentration response curves were performed in duplicate over the concentration range of 0.15 nM-30 uM. On day 0, the compounds or vehicle were plated in a 300 nL directly into 96 well cell culture plates (Corning, 3599) with 5000 cells/well in a volume of 100 uL. Blank wells received cell culture medium. Plates were incubated for 4 days at 37° C. with 5% CO2. On days 4 and day 8 the cells were split and incubated for a further 4 days whilst an aliquot of cells were taken for the CTG readout. For the cell splitting, 270 nL of compounds or DMSO was added to a new 96 well cell culture plate to which 90 uL of medium plus 10 uL of cells from the original assay plate (after mixing) or 100 uL of medium (Blank wells) was added. This was repeated on day 8.
Cell viability was assessed using the CellTiter-Glo® homogeneous luminescent assay kit (Promega, G9243), according to the manufacturer's instructions. This quantifies ATP, which indicates the presence of metabolically active cells. On days 4, 8 and 12, 20 ul of the remaining cell suspension was aspirated into 384-well plate (Corning 3570) to which an equal volume CellTiter-Glo reagent was. Plates were incubated for 10 minute incubation at RT prior to recording the luminescence signal using EnVision plate reader (PE, 2104). The resulting data were analyzed as follows:
Inhibition (%)=100%×(Lumvehicie−Lumsample)/(Lumvehicle−Lumblank)
where vehicle are cells treated with 0.3% DMSO, Blank is culture medium. IC50 determinations were calculated by fitting the curve using XLfit (v5.3.1.3): Y=Bottom+(Top−Bottom)/(1+10^((Log IC50−X)*HillSlope)).

[3] = tested on: acute myeloid leukemia; details: cited from earlier work

| Compound | IC50 [1] | IC50 [2] | antileukemic effects ([3]; patients with relapsed and refractory AML) | tolerability ([3]; phase 1 study, patients with solid tumors and AML) |
| --- | --- | --- | --- | --- |
| Cc1noc2cc(C(=O)Nc3cc4[nH]c(CN5CCC[C@@H]5C)cc4cn3)ccc12 [Example 1, (S)-3-methyl-N-(2-((2-methylpyrrolidin-1-yl)methyl)-1H-pyrrolo[3,2-c]pyridin-6-yl)benzo[d]isoxazole-6-carboxamide] | 143 nM | 0.057 µM |  |  |
| Cc1nn(C)c2cc(C(=O)Nc3cc4[nH]c(CN5CCC[C@@H]5C)cc4cn3)ccc12 [Example 5] | 125 nM | 0.022 µM |  |  |
| Cc1nn(C)c2ccc(C(=O)Nc3cc4[nH]c(CN5CCC[C@@H]5C)cc4cn3)cc12 [Example 6] | 133 nM | 0.061 µM |  |  |
| C[C@H]1CCCN1Cc1cc2cnc(NC(=O)c3ccc4cnn(C)c4c3)cc2[nH]1 [Example 7] | 298 nM | 0.173 µM |  |  |
| C[C@H]1CCCN1Cc1cc2cnc(NC(=O)c3ccc(-c4cnn(C)c4)cc3)cc2[nH]1 [Example 21, 4-(1-methylpyrazol-4-yl)-N-(2-[[(2S)-2-methylpyrrolidin-1-yl]methyl]-1H-pyrrolo[3,2-c]pyridin-6-yl)benzamide] | 250 nM | 0.301 µM |  |  |
| Cc1ccc2cc(C(=O)Nc3cc4[nH]c(CN5CCC[C@@H]5C)cc4cn3)ccc2n1 [Example 22] | 139 nM | 0.127 µM |  |  |
| C[C@H]1CCCN1Cc1cc2cnc(NC(=O)c3ccc4cc(=O)[nH]cc4c3)cc2[nH]1 [Example 23, N-(2-[[(2S)-2-methylpyrrolidin-1-yl]methyl]-1H-pyrrolo[3,2-c]pyridin-6-yl)-3-oxo-2H-isoquinoline-7-carboxamide] | 208 nM | 0.076 µM |  |  |
| C[C@H]1CCCN1Cc1cc2cnc(NC(=O)c3ccc4oc(=O)[nH]c4c3)cc2[nH]1 [Example 24, N-(2-[[(2S)-2-methylpyrrolidin-1-yl]methyl]-1H-pyrrolo[3,2-c]pyridin-6-yl)-2-oxo-3H-1,3-benzoxazole-5-carboxamide] | 1090 nM | 1.46 µM |  |  |
| C[C@H]1CCCN1Cc1cc2cnc(NC(=O)c3ccc(-c4ccn(C)n4)cc3F)cc2[nH]1 [Example 32] | 1400 nM | 0.455 µM |  |  |
| C[C@H]1CCCN1Cc1cc2cnc(NC(=O)c3ccc(-c4cnn(C)c4)cc3F)cc2[nH]1 [Example 34] | 227 nM | 0.122 µM |  |  |
| C[C@H]1CCCN1Cc1cc2cnc(NC(=O)c3ccc(-c4cn[nH]c4)cc3)cc2[nH]1 [Example 42, N-(2-[[(2S)-2-methylpyrrolidin-1-yl]methyl]-1H-pyrrolo[3,2-c]pyridin-6-yl)-4-(1H-pyrazol-4-yl)benzamide] | 161 nM | 0.109 µM |  |  |
| Cn1ncc2cc(C(=O)Nc3cc4[nH]c(CN5CC6(COC6)C5)cc4cn3)ccc21 [Example 46] | 306 nM | 1.22 µM |  |  |
| Cc1n[nH]c2ccc(C(=O)Nc3cc4[nH]c(CN5CCC[C@@H]5C)cc4cn3)cc12 [Example 47] | 144 nM | 0.128 µM |  |  |
| C[C@H]1CCCN1Cc1cc2cnc(NC(=O)c3ccc4[nH]nc(C5CC5)c4c3)cc2[nH]1 [Example 48] | 140 nM | 0.057 µM |  |  |
| C[C@H]1CCCN1Cc1cc2cnc(NC(=O)c3ccc(-c4cnn(C(F)F)c4)cc3)cc2[nH]1 [Example 50] | 158 nM | 0.1 µM |  |  |
| COCCn1cc(-c2ccc(C(=O)Nc3cc4[nH]c(CN5CCC[C@@H]5C)cc4cn3)cc2)cn1 [Example 51] | 187 nM | 0.077 µM |  |  |
| C[C@H]1CCCN1Cc1cc2cnc(NC(=O)c3ccc(-c4cnn(CC#N)c4)cc3)cc2[nH]1 [Example 52] | 154 nM | 0.184 µM |  |  |
| C[C@H]1CCCN1Cc1cc2cnc(NC(=O)c3ccc4c(C(F)F)nn(C)c4c3)cc2[nH]1 [Example 55] | 116 nM | 0.058 µM |  |  |
| C[C@H]1CCCN1Cc1cc2cnc(NC(=O)c3ccc4c(C5CC5)nn(C)c4c3)cc2[nH]1 [Example 56] | 78 nM | 0.044 µM |  |  |

| Compound | IC50 [1] | IC50 [2] | antileukemic effects ([3]; patients with relapsed and refractory AML) | tolerability ([3]; phase 1 study, patients with solid tumors and AML) |
| --- | --- | --- | --- | --- |
| Cc1cc2cc(C(=O)Nc3cc4[nH]c(CN5CCC[C@@H]5C)cc4cn3)ccc2nn1 [Example 57] | 272 nM | 0.314 µM |  |  |
| C[C@H]1CCCN1Cc1cc2cnc(NC(=O)c3ccc4c(N)nn(C)c4c3)cc2[nH]1 [Example 60] | 330 nM | 0.182 µM |  |  |
| C[C@H]1CCCN1Cc1cc2cnc(NC(=O)c3ccc4c(CO)nccc4c3)cc2[nH]1 [Example 66] | 85 nM | 0.094 µM |  |  |
| Cc1n[nH]c2cc(C(=O)Nc3cc4[nH]c(CN5CCC[C@@H]5C)cc4cn3)ccc12 [Example 67] | 125 nM | 0.149 µM |  |  |
| C[C@H]1CCN1Cc1cc2cnc(NC(=O)c3ccc4[nH]nc(C5CC5)c4c3)cc2[nH]1 [Example 73, 3-cyclopropyl-N-(2-[[(2S)-2-methylazetidin-1-yl]methyl]-1H-pyrrolo[3,2-c]pyridin-6-yl)-1H-indazole-5-carboxamide] | 238 nM | 0.684 µM |  |  |
| C[C@H]1CCCN1Cc1cc2cnc(NC(=O)c3ccc4c(N)nccc4c3)cc2[nH]1 [Example 82] | 33 nM | 0.454 µM |  |  |
| CNc1nn(C)c2cc(C(=O)Nc3cc4[nH]c(CN5CCC[C@@H]5C)cc4cn3)ccc12 [Example 85] | 176 nM | 0.183 µM |  |  |
| C[C@H]1CCCN1Cc1cc2cnc(NC(=O)c3ccc4c(N(C)C)nn(C)c4c3)cc2[nH]1 [Example 86] | 209 nM | 0.482 µM |  |  |
| COc1cc2ccc(C(=O)Nc3cc4[nH]c(CN5CCC[C@@H]5C)cc4cn3)cc2cn1 [Example 88] | 141 nM | 0.623 µM |  |  |
| C[C@H]1CCCN1Cc1cc2cnc(NC(=O)c3ccc4c(c3)c(N)nn4C)cc2[nH]1 [Example 92] | 210 nM | 0.134 µM |  |  |
| C[C@H]1CCCN1Cc1cc2cnc(NC(=O)c3ccc4c(c3)[nH]c(=O)n4C)cc2[nH]1 [Example 93] | 97 nM | 0.181 µM |  |  |
| COCCNc1nn(C)c2cc(C(=O)Nc3cc4[nH]c(CN5CCC[C@@H]5C)cc4cn3)ccc12 [Example 94, 3-[(2-methoxyethyl)amino]-1-methyl-N-(2-[[(2S)-2-methylpyrrolidin-1-yl]methyl]-1H-pyrrolo[3,2-c]pyridin-6-yl)indazole-6-carboxamide] | 118 nM | 0.365 µM |  |  |
| C[C@H]1CCCN1Cc1cc2cnc(NC(=O)c3ccc4c(NCC(F)F)nn(C)c4c3)cc2[nH]1 [Example 95, 3-[(2,2-difluoroethyl)amino]-1-methyl-N-(2-[[(2S)-2-methylpyrrolidin-1-yl]methyl]-1H-pyrrolo[3,2-c]pyridin-6-yl)indazole-6-carboxamide] | 160 nM | 0.704 µM |  |  |
| CNc1cc2ccc(C(=O)Nc3cc4[nH]c(CN5CCC[C@@H]5C)cc4cn3)cc2cn1 [Example 97] | 572 nM | 0.321 µM |  |  |
| C[C@H]1CCCN1Cc1cc2cnc(NC(=O)c3ccc4c(c3)CNC(=O)N4C)cc2[nH]1 [Example 98] | 330 nM | 1.06 µM |  |  |
| Cc1ncc2cc(C(=O)Nc3cc4[nH]c(CN5CCC[C@@H]5C)cc4cn3)ccn12 [Example 99, 3-methyl-N-(2-[[(2S)-2-methylpyrrolidin-1-yl]methyl]-1H-pyrrolo[3,2-c]pyridin-6-yl)imidazo[1,5-a]pyridine-7-carboxamide] | 186 nM | 0.468 µM |  |  |
| Cn1ncc2ccc(C(=O)Nc3cc4[nH]c(CN5CC6(CCOCC6)C5)cc4cn3)cc21 [Example 104] | 210 nM | 0.22 µM |  |  |
| CCS(=O)(=O)Nc1ccc(Oc2ccc(F)cc2F)c(-c2cn(C)c(=O)c3[nH]ccc23)c1 [Mivebresib] |  |  | showed antileukemic effects | well tolerated |
| Cc1n[nH]c2ccc(C(=O)Nc3cnc4cc(CN5CCC[C@@H]5C)[nH]c4c3)c(F)c12 [compound 106] | 170 nM |  |  |  |
